Patent US10604535B2, “Compounds, compositions and methods” (Denali Therapeutics Inc., priority 2016, dated 2020)
Where two headings read alike, the source gives them in different places.

Columns and labels:
[1] = test system: FADD-deficient Jurkat cells; assay: Cellular necroptosis assay (human TNFα-induced necrosis, CellTiter-Glo); assay type: cell-based; conditions: 48 h, TNFα 10 ng/mL, read-out: Cell IC50
GST-hRIPK1 (8-327) = GST-hRIPK1 (8-327) (Homo sapiens (Human), UniProt Q13546); assay: Fluorescent Polarization Binding (FP Binding) assay
Chain of GST-hRIPK1 (8-327) (Q13546 8-327): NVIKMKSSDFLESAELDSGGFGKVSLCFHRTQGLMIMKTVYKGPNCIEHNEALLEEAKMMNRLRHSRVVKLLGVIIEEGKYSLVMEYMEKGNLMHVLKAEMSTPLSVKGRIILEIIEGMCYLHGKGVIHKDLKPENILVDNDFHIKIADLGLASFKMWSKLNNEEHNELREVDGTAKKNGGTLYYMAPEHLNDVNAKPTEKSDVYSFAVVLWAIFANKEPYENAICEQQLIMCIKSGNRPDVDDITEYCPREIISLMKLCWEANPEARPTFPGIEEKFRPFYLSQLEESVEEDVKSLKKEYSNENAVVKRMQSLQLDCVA

| IC50 (GST-hRIPK1 (8-327)) | Molecule | IC50 ([1]; Homo sapiens, Jurkat) | IC50 [1] |
| --- | --- | --- | --- |
| 0.1 to 1000 nM | CN1C(=O)[C@@H](NC(=O)c2nnc(Cc3ccccc3)o2)C2(CC2)Oc2cccnc21 [Example 160A, (S)-5-benzyl-N-(5′-methyl-4′-oxo-4′,5′-dihydro-3′H-spiro[cyclopropane-1,2′-pyrido[3,2-b][1,4]oxazepin]-3′-yl)-1,3,4-oxadiazole-2-carboxamide] | 0.1 to 1000 nM |  |
| 0.1 to 1000 nM | CN1C(=O)[C@@H](NC(=O)c2nn(Cc3ccccc3)cc2F)CCc2cccnc21 [Example 111B, (S)-1-benzyl-4-fluoro-N-(9-methyl-8-oxo-6,7,8,9-tetrahydro-5H-pyrido[2,3-b]azepin-7-yl)-1H-pyrazole-3-carboxamide] | 0.1 to 1000 nM |  |
| 0.1 to 1000 nM | CN1C(=O)[C@@H](NC(=O)c2nnc(C3(c4ccccc4)CC3)o2)CCc2cccnc21 [Example 145A, (S)—N-(9-methyl-8-oxo-6,7,8,9-tetrahydro-5H-pyrido[2,3-b]azepin-7-yl)-5-(1-phenylcyclopropyl)-1,3,4-oxadiazole-2-carboxamide] | 0.1 to 1000 nM |  |
| 0.1 to 1000 nM | CN1C(=O)[C@@H](NC(=O)c2nn(Cc3ccccc3)cc2F)CCc2c1cnn2C [Example 114A, (S)-1-benzyl-N-(1,4-dimethyl-5-oxo-1,4,5,6,7,8-hexahydropyrazolo[4,3-b]azepin-6-yl)-4-fluoro-1H-pyrazole-3-carboxamide] | 0.1 to 1000 nM |  |
| 0.1 to 1000 nM | CN1C(=O)[C@@H](NC(=O)c2nn(Cc3ccccc3F)cc2F)[C@H]2C[C@H]2c2nccnc21 [Example 179A, 4-fluoro-1-(2-fluorobenzyl)-N-((7S,7aS,8aR)-5-methyl-6-oxo-5,6,7,7a,8,8a-hexahydrocyclopropa[d]pyrazino[2,3-b]azepin-7-yl)-1H-pyrazole-3-carboxamide] | 0.1 to 1000 nM |  |
|  | CN1C(=O)[C@@H](NC(=O)c2nnc(Cc3ccccc3)[nH]2)C[C@H](F)c2ccccc21 (mixture of isomers) [Example 12A, 5-benzyl-N-((3S,5S)-5-fluoro-1-methyl-2-oxo-2,3,4,5-tetrahydro-1H-benzo[b]azepin-3-yl)-4H-1,2,4-triazole-3-carboxamide and 5-benzyl-N-((3R,5R)-5-fluoro-1-methyl-2-oxo-2,3,4,5-tetrahydro-1H-benzo[b]azepin-3-yl)-4H-1,2,4-triazole-3-carboxamide] |  | 0.1 to 1000 nM |
|  | CN1C(=O)[C@@H](NC(=O)c2cc(Cc3ccccc3)on2)CCc2sc(Cl)cc21 (stereo in doubt) [Example 1A, 5-Benzyl-N-(2-chloro-4-methyl-5-oxo-4H,5H,6H,7H,8H-thieno[3,2-b]azepin-6-yl)-1,2-oxazole-3-carboxamide] | 0.1 to 1000 nM |  |
|  | CN1C(=O)[C@@H](NC(=O)c2nc3cccc(-c4ccccc4F)c3s2)COc2ccccc21 [Example 79, (S)-7-(2-fluorophenyl)-N-(5-methyl-4-oxo-2,3,4,5-tetrahydrobenzo[b][1,4]oxazepin-3-yl)benzo[d]thiazole-2-carboxamide] | 0.1 to 1000 nM |  |
|  | CN1C(=O)[C@@H](NC(=O)c2nnc([C@H]3CCc4ccccc43)[nH]2)COc2cccnc21 [Example 54B, 5-((S)-2,3-dihydro-1H-inden-1-yl)-N—((S)-5-methyl-4-oxo-2,3,4,5-tetrahydropyrido[3,2-b][1,4]oxazepin-3-yl)-4H-1,2,4-triazole-3-carboxamide] |  | 0.1 to 1000 nM |
|  | CN1C(=O)[C@@H](NC(=O)c2noc(Cc3ccccc3)n2)COc2cccnc21 [Example 215, (S)-5-benzyl-N-(5-methyl-4-oxo-2,3,4,5-tetrahydropyrido[3,2-b][1,4]oxazepin-3-yl)-1,2,4-oxadiazole-3-carboxamide] | 0.1 to 1000 nM |  |
|  | [2H]C([2H])([2H])N1C(=O)[C@@H](NC(=O)c2nnc(C3(c4ccccc4)CC3)o2)COc2cccnc21 [Example 173, (S)—N-(5-trideuteriomethyl-4-oxo-2,3,4,5-tetrahydropyrido[3,2-b][1,4]oxazepin-3-yl)-5-(1-phenylcyclopropyl)-1,3,4-oxadiazole-2-carboxamide] | 0.1 to 1000 nM |  |
|  | CN1C(=O)[C@H](NC(=O)c2nnc(Cc3ccccc3)[nH]2)C[C@H](F)c2ccccc21 (mixture of isomers) [Example 11B, 5-benzyl-N-((3S,5R)-5-fluoro-1-methyl-2-oxo-2,3,4,5-tetrahydro-1H-benzo[b]azepin-3-yl)-4H-1,2,4-triazole-3-carboxamide and 5-benzyl-N-((3R,5S)-5-fluoro-1-methyl-2-oxo-2,3,4,5-tetrahydro-1H-benzo[b]azepin-3-yl)-4H-1,2,4-triazole-3-carboxamide] | 0.1 to 1000 nM |  |
|  | CN1C(=O)[C@@H](NC(=O)c2coc(C3(c4ccccc4)CC3)n2)COc2ccccc21 [Example 61, (S)—N-(5-methyl-4-oxo-2,3,4,5-tetrahydrobenzo[b][1,4]oxazepin-3-yl)-2-(1-phenylcyclopropyl)oxazole-4-carboxamide] | 0.1 to 1000 nM |  |
|  | CN1C(=O)[C@@H](NC(=O)c2ncc(Cc3ccccc3)s2)COc2cccnc21 [Example 86, (S)-5-benzyl-N-(5-methyl-4-oxo-2,3,4,5-tetrahydropyrido[3,2-b][1,4]oxazepin-3-yl)thiazole-2-carboxamide] | 0.1 to 1000 nM |  |
|  | [2H]C([2H])([2H])N1C(=O)[C@@H](NC(=O)c2nn(Cc3ccccc3)cc2F)COc2cccnc21 [Example 175, (S)-1-benzyl-4-fluoro-N-(5-trideuteriomethyl-4-oxo-2,3,4,5-tetrahydropyrido[3,2-b][1,4]oxazepin-3-yl)-1H-pyrazole-3-carboxamide] | 0.1 to 1000 nM |  |
|  | CN1C(=O)[C@@H](NC(=O)c2nnc(Cc3ccccc3)[nH]2)C[C@H](F)c2ccccc21 (mixture of isomers) [Example 12, 5-benzyl-N-((3S,5S)-5-fluoro-1-methyl-2-oxo-2,3,4,5-tetrahydro-1H-benzo[b]azepin-3-yl)-4H-1,2,4-triazole-3-carboxamide and 5-benzyl-N-((3R,5R)-5-fluoro-1-methyl-2-oxo-2,3,4,5-tetrahydro-1H-benzo[b]azepin-3-yl)-4H-1,2,4-triazole-3-carboxamide] | 0.1 to 1000 nM |  |
|  | CN1C(=O)[C@@H](NC(=O)c2nn(Cc3ncccn3)cc2F)COc2ccccc21 [Example 224, (S)-4-fluoro-N-(5-methyl-4-oxo-2,3,4,5-tetrahydrobenzo[b][1,4]oxazepin-3-yl)-1-(pyrimidin-2-ylmethyl)-1H-pyrazole-3-carboxamide] | 0.1 to 1000 nM |  |
|  | CN1C(=O)[C@@H](NC(=O)c2cc(C3(c4ccccc4)CC3)[nH]n2)COc2ccccc21 [Example 72, (S)—N-(5-methyl-4-oxo-2,3,4,5-tetrahydrobenzo[b][1,4]oxazepin-3-yl)-5-(1-phenylcyclopropyl)-1H-pyrazole-3-carboxamide] | 0.1 to 1000 nM |  |
|  | C[C@H]1Oc2cccnc2N(C)C(=O)[C@H]1NC(=O)c1noc(Cc2ccccc2)n1 [Example 222, 5-benzyl-N-((2R,3S)-2,5-dimethyl-4-oxo-2,3,4,5-tetrahydropyrido[3,2-b][1,4]oxazepin-3-yl)-1,2,4-oxadiazole-3-carboxamide] | 0.1 to 1000 nM |  |
|  | CN1C(=O)C(NC(=O)c2cc(Cc3ccccc3)on2)[C@@H]2C[C@@H]2c2ccccc21 (stereo in doubt) [Example 7B, 5-benzyl-N-((2S)-4-methyl-3-oxo-1,1a,2,3,4,8b-hexahydrobenzo[b]cyclopropa[d]azepin-2-yl)isoxazole-3-carboxamide] | 1000 to 10000 nM |  |
|  | CN1C(=O)[C@@H](NC(=O)c2nnc(Cc3ccccc3)[nH]2)C[C@@H](F)c2ccccc21 (mixture of isomers) [Example 11, 5-benzyl-N-((3S,5R)-5-fluoro-1-methyl-2-oxo-2,3,4,5-tetrahydro-1H-benzo[b]azepin-3-yl)-4H-1,2,4-triazole-3-carboxamide and 5-benzyl-N-((3R,5S)-5-fluoro-1-methyl-2-oxo-2,3,4,5-tetrahydro-1H-benzo[b]azepin-3-yl)-4H-1,2,4-triazole-3-carboxamide] | 0.1 to 1000 nM |  |
|  | CN1C(=O)[C@@H](NC(=O)c2nc3cccc(-c4ccccc4)c3s2)COc2ccccc21 [Example 84, (S)—N-(5-methyl-4-oxo-2,3,4,5-tetrahydrobenzo[b][1,4]oxazepin-3-yl)-7-phenylbenzo[d]thiazole-2-carboxamide] | 0.1 to 1000 nM |  |
|  | CN1C(=O)[C@@H](NC(=O)c2nnc(Cc3ccccc3)s2)COc2cccnc21 [Example 85, (S)-5-benzyl-N-(5-methyl-4-oxo-2,3,4,5-tetrahydropyrido[3,2-b][1,4]oxazepin-3-yl)-1,3,4-thiadiazole-2-carboxamide] | 0.1 to 1000 nM |  |
|  | CN1C(=O)[C@@H](NC(=O)c2nnc(Cc3ccccc3)[nH]2)C[C@@H](F)c2ccccc21 (mixture of isomers) [Example 11A, 5-benzyl-N-((3S,5R)-5-fluoro-1-methyl-2-oxo-2,3,4,5-tetrahydro-1H-benzo[b]azepin-3-yl)-4H-1,2,4-triazole-3-carboxamide and 5-benzyl-N-((3R,5S)-5-fluoro-1-methyl-2-oxo-2,3,4,5-tetrahydro-1H-benzo[b]azepin-3-yl)-4H-1,2,4-triazole-3-carboxamide] |  | 0.1 to 1000 nM |
|  | CN1C(=O)[C@@H](NC(=O)c2nn(Cc3ccccc3)cc2F)[C@H]2C[C@H]2c2cccnc21 [Example 82A, 1-benzyl-4-fluoro-N-((1aS,2S,8bR)-4-methyl-3-oxo-1,1a,2,3,4,8b-hexahydrocyclopropa[d]pyrido[2,3-b]azepin-2-yl)-1H-pyrazole-3-carboxamide] | 0.1 to 1000 nM |  |
|  | CN1C(=O)[C@@H](NC(=O)c2cc(C3(c4ccccc4)CC3)[nH]n2)COc2cccnc21 [Example 73, (S)—N-(5-methyl-4-oxo-2,3,4,5-tetrahydropyrido[3,2-b][1,4]oxazepin-3-yl)-5-(1-phenylcyclopropyl)-1H-pyrazole-3-carboxamide] | 0.1 to 1000 nM |  |

| Molecule | IC50 (GST-hRIPK1 (8-327)) | IC50 ([1]; Homo sapiens, Jurkat) | IC50 [1] |
| --- | --- | --- | --- |
| C[C@H]1Oc2cccnc2N(C)C(=O)[C@H]1NC(=O)c1cc(Cc2ccccc2)on1 [Example 112, 5-benzyl-N-((2R,3S)-2,5-dimethyl-4-oxo-2,3,4,5-tetrahydropyrido[3,2-b][1,4]oxazepin-3-yl)isoxazole-3-carboxamide] | 0.1 to 1000 nM | 0.1 to 1000 nM |  |
| (S)-1-(2-cyanobenzyl)-4-fluoro-N-(5-methyl-4-oxo-2,3,4,5-tetrahydropyrido[3,2-b][1,4]oxazepin-3-yl)-1H-pyrazole-3-carboxamide [Example 153] | 0.1 to 1000 nM |  | 0.1 to 1000 nM |
